Here are results for three compounds from patent US6982142B2, “Methods for screening therapeutically effective agents” (John Wayne Cancer Institute, priority 1997, dated 2006).

For one assay, the system named is MCF-7 cells. As to the kind of experiment: cells. The format is cell-based. The settings on record: Homo sapiens, MCF7, 96 h, read-out: EC50 (cytotoxicity). On the procedure:
(§1) Cytotoxicity Assay. The assay was performed as previously described (Lavie, 1997). […] Cultures were incubated at 37° C. for 24 hr before addition of drug. Drugs were added in FBS-free medium (0.1 ml), and cells were cultured at 37° C. for the indicated periods. Drug cytotoxicity was determined using the Promega 96 Aqueous cell proliferation assay kit. Absorbance at 490 nm was recorded using an ELISA reader (Molecular Devices, San Diego, Calif.).
(§2) Adriamycin was used to assess the influence of GCS transfection on cellular response to anthracyclines. After pretreatment with doxycycline for two days, MCF-7/GCS cells were incubated with increasing concentrations of adriamycin for four days. […] It was observed that MCF-7/GCS cells were resistant to ceramide toxicity as well. […] However, the EC50 in the TC group was nearly identical with that of MCF-7 cells, there being no statistical difference between the two groups (FIG. 14C).

In another assay the test system is MCF-7/GCS cells. Type of assay: cell-based, human. The settings on record: MCF-7/GCS vs MCF-7. The method, then:
as §1, §2

For assay [1], the system named is MCF-7-AdrR cells. As to the kind of experiment: cells. The settings on record: Homo sapiens, read-out: cell viability.
The subject of another assay is MCF-7-wt cells. As to the kind of experiment: Cytotoxicity assay (Promega) in chemosensitive wild-type breast cancer cells. The format is cell-based, human. The settings on record: C6-ceramide at increasing concentrations, 72 hr.
Assay [2] concerns glucosylceramide synthase. As to the kind of experiment: Glucosylceramide synthase radioenzymatic assay on microsomes of Tet-on GCS-transfected clones. The format is cell-based, human. The method, then:
Glucosylceramide Synthase Assay. To determine the expression of GCS in the hygromycin-resistant clones, a modified radioenzymatic assay was utilized (Lavie, 1997; Shukla, 1990). After incubation in the absence or presence of doxycycline (3 μg/ml, 48 hr), cells were homogenized by sonication in lysis buffer (50 mM Tris-HCl, pH 7.4, 1.0 μg/ml leupeptin, 10 μg/ml aprotinin, 25 μM PMSF). Microsomes were isolated by centrifugation (129,000×g, 60 min). The enzyme assay, containing 50 μg microsomal protein, in a final volume of 0.2 ml, was performed in a shaking water bath at 37° C. for 60 min. The reaction contained liposomal substrate composed of C6-ceramide (1.0 mM), phosphatidylcholine (3.6 mM, MW 786.15), and brain sulfatides (0.9 mM, MW 563). The liposomal substrate was prepared by mixing the components, evaporating the solvents under a stream of nitrogen, and sonicating in water over ice for 1-min using a microtip at 50% output (Kontes, Micro Ultrasonic Cell Disrupter). Other reaction components included sodium phosphate buffer (0.1 M) pH 7.8, EDTA (2.0 mM), MgCl2 (10 mM), dithiothreitol (1.0 mM), β-NAD (2.0 mM), and [^3H]UDP-glucose (0.5 mM). Radiolabeled and unlabeled UDP-glucose were diluted to achieve the desired radiospecific activity (4,700 dpm/nmol). To terminate the reaction, tubes were placed on ice and 0.5 ml isopropanol and 0.4 ml Na2SO4 were added. After brief vortex mixing, 3 ml t-butyl methyl ether was added and the tubes were mixed for 30 sec. After centrifugation, 0.5 ml upper phase which contained GC, was withdrawn and mixed with 4.5 ml EcoLume for analysis of radioactivity by liquid scintillation spectroscopy.
After co-transfection of pTRE-GCS and pTK-Hyg into clone 1 and clone 16 of MCF-7 Tet-on cells, 65 hygromycin-resistant clones were selected. […] Compared with a basal level of 17.2±0.1 pmol GC in MCF-7 wt cells, doxycycline-induced GCS activity in MCF-7/GCS12, […] and MCF-7/GCS14 was to 167.4±17.2, 183.3±12.4, and 90.2±2.76 pmol GC, respectively (FIG. 13A). There were no differences in either basal or doxycycline-induced GCS activity in transfection control cells (TC) or in the basal level of GCS in MCF-7 wt cells (FIG. 13A). In MCF-7/GCS13 and MCF-7/GCS14, the doxycycline-inducible GCS activities were 1.6-fold and 4.1-fold, respectively, above untreated cells. The MCF-7/GCS14 clone was designated MCF-7/GCS, and this clone was used in further experiments.

A further assay relates to GCS mRNA. As to the kind of experiment: Northern blot of GCS mRNA expression in MCF-7/GCS cells. Type of assay: cell-based, human. On the procedure: (A) Northern Blot showing regulated expression of GCS mRNA in MCF-7 and MCF-7/GCS cells incubated with the indicated concentrations of doxycycline (dox, μg/ml). Total RNA per lane was 15 micrograms. Ethidium bromide-stained RNA (28 S) was used as a control for even loading. Densities of GCS/28 S RNA (×100) in MCF-7/GCS cells were 16, 18, 97, 256 at 0, 0.1, 1.0 and 3.0 μg/ml doxycycline, respectively. (B) Dose-response of GCS activity to doxycycline. Cells were incubated for 96 hr in medium containing the indicated concentrations of doxycycline. GCS activity was analyzed by radioenzymatic assay. * p<0.01, **p<0.001 compared with MCF-7 cells. (C) Doxycycline-induced resistance to ceramide. Cells were pretreated with the indicated concentrations of doxycycline for 48 hr, seeded in 96-well plates, and treated the following day with 5 μM C6ceramide in RPMI-1640 medium containing 5% FBS. Cell viability was determined after 96 hr. Data represent the mean ±SD of six replicates from two independent experiments. Control cells were cultured in medium without C6-ceramide. * p<0.001 compared to MCF-7 cells; **p<0.001, compared to MCF-7 cells exposed to 1.0 μg/ml doxycycline.
RNA Analysis. RNA was extracted from cells using the single-step method described by Chomczynski and Sacchi (Chomczynski, 1987). Equal amounts of total RNA (15 μg) were denatured in 59% formamide/2.2 M formaldehyde, size separated by electrophoresis on 1% agarose-formaldehyde, and then blotted onto nitrocellulose-plus (Sambrook, 1989). GCS cDNA was prepared from pCG-2 plasmid, digested with EcoR I, and Hind III (Stratagene, La Jolla, Calif.). […]
If ceramide resistance is induced by GCS expression in MCF-7/GCS cells, the resistance response should be tightly correlated with the level of the inducer, doxycycline. It was determined that increasing doxycycline concentrations correlated closely with increased expression of GCS, which in turn correlated well with increased resistance of the cells to C6ceramide. […]

For assay [3], the system named is MCF-7-AdrR cells. As to the kind of experiment: Cell radiolabeling and TLC/LSC analysis of ceramide, glucosylceramide and sphingomyelin in MDR breast cancer cells. The format is cell-based, human. The settings on record: adriamycin 2.5, PSC 833 5.0 μM, tamoxifen 5.0 μM alone or combined, 24 h, [3H]palmitic acid. The method, then: Cells. Experiments were conducted using the human MDR breast cancer cell line, MCF-7 AdrR (adriamycin resistant) provided by Drs. Kenneth H. Cowan and Merrill E. Goldsmith, National Cancer Institute. Cells were grown in RPMI-1640 medium containing 10% FBS (fetal bovine serum) and antibiotics as previously described (Lavie, 1997) and cultures were maintained in a humidified 6.5% CO2 atmosphere incubator. Trypsin (0.05%) and EDTA (0.5 mM) were used for subculture. Plastic tissue cultureware, was from Costar (96-well plates) and Corning (6-well plates, 6-cm dishes, T-75 flasks). Limited experiments were conducted using the human MDR epidermoid carcinoma cell line, KBV-1, provided by Dr. Michael M. Gottesman, National Cancer Institute. Cells were maintained as described (Lavie, 1996). Vinblastine was eliminated from the culture medium during the experiments.
Cell Radiolabeling and Lipid/Glycolipid Analysis. To follow lipid metabolism, cells were grown in the presence of tritiated ceramide precursors, L-[^3H]serine (20 Ci/mmol) (American Radiolabeled Chemicals, Inc., St. Louis), and [9, 10-^3H]palmitic acid (50 Ci/mmol) (DuPont NEN). Labeling media were prepared by adding microliter amounts of tritiated compounds (supplied in ethanol or sterile water) to medium containing only 5% FBS. After radiolabeling, 0.1 ml aliquots of medium were removed and analyzed by LSC (Lavie, 1997), in order to determine cellular uptake of the tritiated compounds. Cell monolayers were then rinsed twice with cold phosphate-buffered saline. Ice cold methanol containing 2% acetic acid was added, and cells were scraped free of the substratum (plastic scraper) for lipid extraction using chloroform and water in 1-dram glass vials as described (Lavie, 1997; Lavie, 1996; Bligh and Dyer, 1959). After centrifugation, the resulting organic lower phase of the biphasic extraction was withdrawn, transferred to a glass vial, and evaporated to dryness under a stream of nitrogen.
Radioactivity in glucosylceramide was analyzed by TLC resolution of total lipids (Silica Gel G) using a solvent system containing chloroform/methanol/ammonium hydroxide (80:20:2, v/v/v). Migration of glucosylceramide on TLC was compared with that of commercial standard (glucocerebrosides, Gaucher's spleen, Matreya, Inc., Pleasant Gap, Pa.), and lipid spots, after iodine vapor visualization, were scraped for tritium quantitation by LSC (Lavie, 1997; Lavie, 1996). […] Ceramide and sphingomyelin commercial standards (brain-derived) were from Avanti Polar Lipids, Alabaster, Ala. After iodine visualization of lipids, areas of the chromatogram corresponding to ceramide and sphingomyelin were scraped into minivials containing 0.5 ml water followed by 4.5 ml EcoLume (ICN, Costa Mesa, Calif.), and samples were analyzed for tritium by liquid scintillation spectrometry. Alternative analysis of ceramide consisted of subjecting an aliquot of the total cell lipid extract to mild alkaline hydrolysis (0.1 N KOH in methanol, 1 h at 37° C.) followed by re-extraction (Lavie, 1997). […] The same can also be done without tritium by simply applying 100-200 μg total cell lipid to TLC plates and developing them in the appropriate solvent, then spraying them with 30% H2SO4, charring the plate in an oven at 180° C. for 20 min, and measuring lipid mass by densitometry.

Read-outs that look alike come from different tables or passages of the source.

Turning to `CCCCCCCCCCCCC/C=C/[C@@H](O)[C@H](CO)NC(=O)CCCCC` [C6-ceramide, N-hexanoylsphingosine], the half-maximal effective concentration (EC50) (commonly the midpoint of the concentration-response curve) with MCF-7 cells worked out at 3.1 ± 0.5 µM. Further, the “EC50 in MCF-7/GCS cells relative to EC50 in MCF-7 cells” value turned out to be 4 fold in the assay on MCF-7/GCS cells and 5 fold in the assay on MCF-7/GCS cells (listed as ceramide). Moreover, the viability – broadly, the share of living cells, or the viability signal relative to a control – at 10 µM in the assay on MCF-7-AdrR cells [1] (72 h) stood at 84%. In addition, the viability at 5 µM in the assay on MCF-7-AdrR cells [1] came to 86%. In addition, the “cell viability, dose-response” value in the assay on MCF-7-wt cells is given as “dose dependent decrease in viability”.
Regarding `C[C@H]1c2cccc(O)c2C(=O)C2=C(O)[C@]3(O)C(=O)C(C(N)=O)=C(O)[C@@H](N(C)C)[C@@H]3[C@@H](O)[C@@H]21.Cl` [doxycycline, Doxycycline hydrochloride], the “doxycycline-induced GCS activity” value in assay [2] (clone MCF-7/GCS3 (so in the source), doxycycline 3 μg/ml) is reported as 183.3±12.4 pmol GC; in assay [2] (clone MCF-7/GCS12, doxycycline 3 μg/ml), 167.4±17.2 pmol GC; in assay [2] (clone MCF-7/GCS14, doxycycline 3 μg/ml), 90.2±2.76 pmol GC. For the same compound, the “doxycycline-inducible GCS activity above untreated cells” value was found to be 1.6 fold in assay [2] (clone MCF-7/GCS13) and 4.1 fold in assay [2] (clone MCF-7/GCS14). Further, the “GCS mRNA density (GCS band/28 S RNA×100)” value in the assay with GCS mRNA (doxycycline 0.1 μg/ml) was 18; in the assay on GCS mRNA (doxycycline 1.0 μg/ml) it was 97; with GCS mRNA (doxycycline 3.0 μg/ml), 256.
Turning to `CC/C(=C(\c1ccccc1)c1ccc(OCCN(C)C)cc1)c1ccccc1` [tamoxifen, Tamoxifen], the “ceramide level, increase over control” value in the assay with MCF-7-AdrR cells [3] is 0.3 fold.
